Data from patent US9321776B2, “Isochromene derivatives as phoshoinositide 3-kinases inhibitors” (CHIESI FARMACEUTICI S.p.A., priority 2013, dated 2016).
Where a name gives a salt, the structure may show the parent alone.

Assays:
Test in all cases: PI3K enzyme inhibitory activity in the cell free assay (ADP-Glo Kinase Assay)
Type in all cases: biochemical
PI3Kβ = target: T1, PI3Kβ (Homo sapiens, UniProt P42338); conditions: human recombinant PI3Kβ, ATP 100 μM; read-out: PI3K beta inhibition
T1 construct: purchased Millipore Ltd (Billerica, Mass.)
T1 sequence (P42338 whole entry): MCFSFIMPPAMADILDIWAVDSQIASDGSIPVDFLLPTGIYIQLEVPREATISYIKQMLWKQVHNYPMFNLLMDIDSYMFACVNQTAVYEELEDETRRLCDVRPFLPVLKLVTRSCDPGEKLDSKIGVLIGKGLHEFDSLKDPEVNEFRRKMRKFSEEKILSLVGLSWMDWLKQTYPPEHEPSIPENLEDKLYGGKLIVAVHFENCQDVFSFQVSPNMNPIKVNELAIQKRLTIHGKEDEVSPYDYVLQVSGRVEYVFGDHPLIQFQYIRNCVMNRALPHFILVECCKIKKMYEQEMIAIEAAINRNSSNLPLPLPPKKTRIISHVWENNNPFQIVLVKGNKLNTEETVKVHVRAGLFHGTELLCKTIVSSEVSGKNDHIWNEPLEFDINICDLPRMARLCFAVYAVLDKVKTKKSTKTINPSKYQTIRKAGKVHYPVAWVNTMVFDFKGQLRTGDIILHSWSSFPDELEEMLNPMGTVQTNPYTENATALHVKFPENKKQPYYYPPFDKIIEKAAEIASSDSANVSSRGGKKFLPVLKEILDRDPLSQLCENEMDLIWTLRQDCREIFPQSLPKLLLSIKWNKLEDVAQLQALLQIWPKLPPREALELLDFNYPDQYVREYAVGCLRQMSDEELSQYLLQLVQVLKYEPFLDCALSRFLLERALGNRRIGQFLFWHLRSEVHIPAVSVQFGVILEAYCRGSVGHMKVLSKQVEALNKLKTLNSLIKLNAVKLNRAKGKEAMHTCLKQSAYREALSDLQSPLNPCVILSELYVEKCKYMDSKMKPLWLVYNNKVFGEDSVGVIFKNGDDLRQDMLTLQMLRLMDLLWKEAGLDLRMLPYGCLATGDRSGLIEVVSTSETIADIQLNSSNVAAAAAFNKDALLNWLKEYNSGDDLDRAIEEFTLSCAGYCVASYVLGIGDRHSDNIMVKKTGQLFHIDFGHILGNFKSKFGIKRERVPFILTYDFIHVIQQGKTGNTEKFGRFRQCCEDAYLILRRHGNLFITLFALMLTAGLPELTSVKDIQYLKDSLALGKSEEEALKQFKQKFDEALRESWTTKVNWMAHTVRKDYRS

PI3Kδ = target: T2, PI3Kδ (Homo sapiens, UniProt O00329); conditions: human recombinant PI3Kδ, ATP 80 μM; read-out: PI3K delta inhibition
T2 construct: purchased Millipore Ltd (Billerica, Mass.)
T2 sequence (O00329 1-1044): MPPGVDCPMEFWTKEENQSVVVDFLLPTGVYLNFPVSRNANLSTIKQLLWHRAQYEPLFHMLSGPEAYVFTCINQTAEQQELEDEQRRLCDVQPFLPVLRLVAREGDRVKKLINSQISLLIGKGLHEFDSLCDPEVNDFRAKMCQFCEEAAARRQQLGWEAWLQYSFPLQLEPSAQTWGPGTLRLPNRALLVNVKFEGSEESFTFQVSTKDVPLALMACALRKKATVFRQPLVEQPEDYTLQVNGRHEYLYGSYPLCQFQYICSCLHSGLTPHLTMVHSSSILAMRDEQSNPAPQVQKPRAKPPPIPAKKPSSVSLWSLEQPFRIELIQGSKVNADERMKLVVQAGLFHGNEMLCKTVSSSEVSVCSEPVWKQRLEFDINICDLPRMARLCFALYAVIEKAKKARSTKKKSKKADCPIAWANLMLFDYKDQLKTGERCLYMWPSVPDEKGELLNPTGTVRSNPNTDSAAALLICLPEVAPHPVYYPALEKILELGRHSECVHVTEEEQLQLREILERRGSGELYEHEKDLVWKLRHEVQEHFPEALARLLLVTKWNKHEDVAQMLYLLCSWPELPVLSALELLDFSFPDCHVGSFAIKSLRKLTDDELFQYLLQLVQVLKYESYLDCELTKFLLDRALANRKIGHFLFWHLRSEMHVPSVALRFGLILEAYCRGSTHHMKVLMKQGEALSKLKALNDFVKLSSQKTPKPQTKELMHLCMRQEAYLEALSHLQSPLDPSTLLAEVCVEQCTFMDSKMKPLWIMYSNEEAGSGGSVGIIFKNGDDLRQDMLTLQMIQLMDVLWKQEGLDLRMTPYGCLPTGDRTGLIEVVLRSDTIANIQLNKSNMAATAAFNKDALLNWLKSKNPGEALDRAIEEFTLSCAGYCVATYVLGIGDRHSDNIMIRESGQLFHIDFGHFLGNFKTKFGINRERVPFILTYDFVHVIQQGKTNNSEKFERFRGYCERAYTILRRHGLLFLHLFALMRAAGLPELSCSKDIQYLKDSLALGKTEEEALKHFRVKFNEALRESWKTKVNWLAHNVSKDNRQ

PI3Kγ = target: T3, PI3Kγ (Homo sapiens, UniProt P48736); conditions: human recombinant PI3Kγ, ATP 30 μM; read-out: PI3K gamma inhibition
T3 construct: purchased Millipore Ltd (Billerica, Mass.)
T3 sequence (P48736 whole entry): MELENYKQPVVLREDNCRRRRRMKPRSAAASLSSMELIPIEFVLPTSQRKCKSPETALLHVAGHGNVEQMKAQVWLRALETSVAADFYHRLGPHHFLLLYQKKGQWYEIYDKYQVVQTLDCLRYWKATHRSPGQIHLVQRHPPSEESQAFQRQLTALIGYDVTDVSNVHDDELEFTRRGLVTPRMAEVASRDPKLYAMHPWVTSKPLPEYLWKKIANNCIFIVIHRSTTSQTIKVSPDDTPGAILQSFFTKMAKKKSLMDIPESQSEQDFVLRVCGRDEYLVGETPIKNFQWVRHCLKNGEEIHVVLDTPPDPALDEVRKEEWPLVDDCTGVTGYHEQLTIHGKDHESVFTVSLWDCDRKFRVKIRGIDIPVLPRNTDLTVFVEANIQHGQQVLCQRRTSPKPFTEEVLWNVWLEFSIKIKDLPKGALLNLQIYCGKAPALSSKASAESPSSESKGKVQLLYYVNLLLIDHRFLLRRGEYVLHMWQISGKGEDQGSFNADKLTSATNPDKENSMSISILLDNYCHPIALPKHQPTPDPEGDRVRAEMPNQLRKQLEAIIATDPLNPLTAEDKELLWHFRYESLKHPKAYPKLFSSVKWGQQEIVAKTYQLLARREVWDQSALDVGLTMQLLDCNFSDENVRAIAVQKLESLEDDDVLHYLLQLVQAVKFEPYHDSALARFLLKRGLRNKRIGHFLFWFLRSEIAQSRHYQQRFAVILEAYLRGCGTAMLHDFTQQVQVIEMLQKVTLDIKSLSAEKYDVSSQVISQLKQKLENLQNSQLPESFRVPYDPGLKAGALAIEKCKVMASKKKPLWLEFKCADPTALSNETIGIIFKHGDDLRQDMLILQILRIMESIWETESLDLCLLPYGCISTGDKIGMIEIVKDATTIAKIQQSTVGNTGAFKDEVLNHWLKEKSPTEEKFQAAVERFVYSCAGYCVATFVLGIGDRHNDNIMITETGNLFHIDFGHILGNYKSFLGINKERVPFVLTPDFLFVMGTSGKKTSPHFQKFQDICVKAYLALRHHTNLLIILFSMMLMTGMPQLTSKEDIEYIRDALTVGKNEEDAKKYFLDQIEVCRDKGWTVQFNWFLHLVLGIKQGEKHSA

Compound	IC50 (PI3Kβ)	IC50 (PI3Kδ)	IC50 (PI3Kγ)
CC(c1oc(=O)c2ccccc2c1-c1cccc(CN2CCCCC2)c1)n1nc(-c2cc(O)cc(F)c2)c2c(N)ncnc21 (centres unmarked) [Example 143, 3-(1-(4-amino-3-(3-fluoro-5-hydroxyphenyl)-1H-pyrazolo[3,4-d]pyrimidin-1-yl)ethyl)-4-(3-(piperidin-1-ylmethyl)phenyl)-1H-isochromen-1-one, Formate]	10 to 1000 nM	10 to 1000 nM	> 1000 nM
CC(c1oc(=O)c2ccccc2c1-c1ccc(CN2CCCC2)s1)n1nc(-c2cc(O)cc(F)c2)c2c(N)ncnc21 (centres unmarked) [Example 73, 3-(1-(4-amino-3-(3-fluoro-5-hydroxyphenyl)-1H-pyrazolo[3,4-d]pyrimidin-1-yl)ethyl)-4-(5-(pyrrolidin-1-ylmethyl)thiophen-2-yl)-1H-isochromen-1-one hydrochloride]	10 to 1000 nM	< 10 nM	> 1000 nM
CC(c1oc(=O)c2ccccc2c1-c1ccccc1)n1nc(C(F)(F)F)c2c(N)ncnc21 (centres unmarked) [Example 104, 3-(1-(4-amino-3-(trifluoromethyl)-1H-pyrazolo[3,4-d]pyrimidin-1-yl)ethyl)-4-phenyl-1H-isochromen-1-one]	> 1000 nM	10 to 1000 nM	> 1000 nM
CC(c1oc(=O)c2ccccc2c1-c1ccc(C(=O)O)s1)n1nc(-c2cc(O)cc(F)c2)c2c(N)ncnc21 (centres unmarked) [Example 78, 5-(3-(1-(4-amino-3-(3-fluoro-5-hydroxyphenyl)-1H-pyrazolo[3,4-d]pyrimidin-1-yl)ethyl)-1-oxo-1H-isochromen-4-yl)thiophene-2-carboxylic acid]	> 1000 nM	< 10 nM	10 to 1000 nM
4-(1-acetyl-1,2,3,6-tetrahydropyridin-4-yl)-3-(1-(4-amino-3-(3-fluoro-5-hydroxyphenyl)-1H-pyrazolo[3,4-d]pyrimidin-1-yl)ethyl)-1H-isochromen-1-one single enantiomer [Example 166b]	10 to 1000 nM		
CC(c1oc(=O)c2ccccc2c1-c1cccc(CCCN(C)C)c1)n1nc(-c2cc(O)cc(F)c2)c2c(N)ncnc21 (single isomer, unassigned) [Example 137a, 3-(1-(4-amino-3-(3-fluoro-5-hydroxyphenyl)-1H-pyrazolo[3,4-d]pyrimidin-1-yl)ethyl)-4-(3-(3-(dimethylamino)propyl)phenyl)-1H-isochromen-1-one single enantiomers]	> 1000 nM	10 to 1000 nM	
CC(c1oc(=O)c2ccccc2c1-c1cccc(N(C)C)c1)n1cnc2c(N)ncnc21 (centres unmarked) [Example 8, 3-(1-(6-Amino-9H-purin-9-yl)ethyl)-4-(3-(dimethylamino)phenyl)-1H-isochromen-1-one]		10 to 1000 nM	10 to 1000 nM
Cc1cccc(-c2c(C(C)Sc3ncnc4[nH]cnc34)oc(=O)c3ccccc23)c1 (centres unmarked) [Example 13, 3-(1-(9H-Purin-6-ylthio)ethyl)-4-m-tolyl-1H-isochromen-1-one]		10 to 1000 nM	> 1000 nM
Cc1cccc(-c2c(C(C)n3cnc4c(N)ncnc43)oc(=O)c3ccccc23)c1 (centres unmarked) [Example 6, 3-(1-(6-Amino-9H-purin-9-yl)ethyl)-4-m-tolyl-1H-isochromen-1-one]		10 to 1000 nM	10 to 1000 nM
CC(c1oc(=O)c2cc(Cl)ccc2c1-c1ccccc1)n1nc(-c2cc(O)cc(F)c2)c2c(N)ncnc21 (centres unmarked) [Example 163, 3-(1-(4-amino-3-(3-fluoro-5-hydroxyphenyl)-1H-pyrazolo[3,4-d]pyrimidin-1-yl)ethyl)-7-chloro-4-phenyl-1H-isochromen-1-one]		10 to 1000 nM	> 1000 nM
CC(Nc1ncnc2[nH]cnc12)c1oc(=O)c2ccccc2c1-c1cccc(F)c1 (centres unmarked) [Example 32, 3-(1-(9H-purin-6-ylamino)ethyl)-4-(3-fluorophenyl)-1H-isochromen-1-one]		< 10 nM	10 to 1000 nM
Cc1cccc(-c2c(CNc3ncnc4[nH]cnc34)oc(=O)c3ccccc23)c1 [Example 31, 3-((9H-Purin-6-ylamino)methyl)-4-m-tolyl-1H-isochromen-1-one]		10 to 1000 nM	10 to 1000 nM
CC(Nc1ncnc2ccsc12)c1oc(=O)c2ccccc2c1-c1ccc(CN2CCOCC2)s1 (centres unmarked) [Example 81, 4-(5-(morpholinomethyl)thiophen-2-yl)-3-(1-(thieno[3,2-d]pyrimidin-4-ylamino)ethyl)-1H-isochromen-1-one hydrochloride]		10 to 1000 nM	> 1000 nM
CC(Nc1ncnc2cccnc12)c1oc(=O)c2ccccc2c1-c1ccccc1 (centres unmarked) [Example 84, 4-phenyl-3-(1-(pyrido[3,2-d]pyrimidin-4-ylamino)ethyl)-1H-isochromen-1-one]		10 to 1000 nM	10 to 1000 nM
CC(Nc1ncnc2ccsc12)c1oc(=O)c2ccccc2c1-c1ccccc1 (centres unmarked) [Example 109, 4-phenyl-3-(1-(thieno[3,2-d]pyrimidin-4-ylamino)ethyl)-1H-isochromen-1-one]		10 to 1000 nM	10 to 1000 nM
CC(c1oc(=O)c2ccccc2c1-c1ccccc1)n1cnc2c(N)ncnc21 (centres unmarked) [Example 5, 3-(1-(6-Amino-9H-1-purin-9-yl)ethyl)-4-phenyl-1H-isochromen-1-one]		10 to 1000 nM	10 to 1000 nM
CC(c1oc(=O)c2ccccc2c1-c1cccc(F)c1)n1cnc2c(N)ncnc21 (centres unmarked) [Example 7, 3-(1-(6-Amino-9H-purin-9-yl)ethyl)-4-(3-fluorophenyl)-1H-isochromen-1-one]		10 to 1000 nM	10 to 1000 nM

Further lines, results first:

IC50 (PI3Kβ)	IC50 (PI3Kδ)	IC50 (PI3Kγ)	Compound
> 1000 nM	10 to 1000 nM	10 to 1000 nM	Nc1ncnc2c1c(-c1ccc3cn[nH]c3c1)nn2Cc1oc(=O)c2ccccc2c1-c1ccccc1 [Example 38, 3-((4-Amino-3-(1H-indazol-6-yl)-1H-pyrazolo[3,4-d]pyrimidin-1-yl)methyl)-4-phenyl-1H-isochromen-1-one]
10 to 1000 nM	10 to 1000 nM	> 1000 nM	CC(c1oc(=O)c2ccccc2c1-c1ccccc1)n1nc(-c2cncc(N)c2)c2c(N)ncnc21 (centres unmarked) [Example 88, 3-(1-(4-amino-3-(5-aminopyridin-3-yl)-1H-pyrazolo[3,4-d]pyrimidin-1-yl)ethyl)-4-phenyl-1H-isochromen-1-one hydrochloride]
10 to 1000 nM	< 10 nM	10 to 1000 nM	Cc1nn(C(C)c2oc(=O)c3ccccc3c2-c2ccccc2)c2ncnc(N)c12 (centres unmarked) [Example 105, 3-(1-(4-amino-3-methyl-1H-pyrazolo[3,4-d]pyrimidin-1-yl)ethyl)-4-phenyl-1H-isochromen-1-one]
> 1000 nM	< 10 nM	10 to 1000 nM	Nc1ncnc2c1c(-c1cc(O)cc(F)c1)nn2Cc1oc(=O)c2ccccc2c1-c1ccccc1 [Example 35, 3-((4-Amino-3-(3-fluoro-5-hydroxyphenyl)-1H-pyrazolo[3,4-d]pyrimidin-1-yl)methyl)-4-phenyl-1H-isochromen-1-one]
	> 1000 nM	10 to 1000 nM	CC(c1oc(=O)c2ccccc2c1-c1ccccc1)n1nc(-c2ccnc(N)n2)c2c(N)ncnc21 (centres unmarked) [Example 89, 3-(1-(4-amino-3-(2-aminopyrimidin-4-yl)-1H-pyrazolo[3,4-d]pyrimidin-1-yl)ethyl)-4-phenyl-1H-isochromen-1-one hydrochloride]
	10 to 1000 nM	10 to 1000 nM	CC(c1oc(=O)c2ccccc2c1-c1ccccc1)n1nc(-c2ccncc2)c2c(N)ncnc21 (centres unmarked) [Example 54, 3-(1-(4-amino-3-(pyridin-4-yl)-1H-pyrazolo[3,4-d]pyrimidin-1-yl)ethyl)-4-phenyl-1H-isochromen-1-one]
	10 to 1000 nM	10 to 1000 nM	CC(C)Oc1ccc(-c2nn(C(C)c3oc(=O)c4ccccc4c3-c3ccccc3)c3ncnc(N)c23)cc1F (centres unmarked) [Example 93, 3-(1-(4-amino-3-(3-fluoro-4-isopropoxyphenyl)-1H-pyrazolo[3,4-d]pyrimidin-1-yl)ethyl)-4-phenyl-1H-isochromen-1-one]
	< 10 nM	10 to 1000 nM	CC(c1oc(=O)c2ccccc2c1-c1ccccc1)n1nc(-c2ccc(CO)nc2)c2c(N)ncnc21 (centres unmarked) [Example 86, 3-(1-(4-amino-3-(6-(hydroxymethyl)pyridin-3-yl)-1H-pyrazolo[3,4-d]pyrimidin-1-yl)ethyl)-4-phenyl-1H-isochromen-1-one]
	10 to 1000 nM	> 1000 nM	Cc1n[nH]c2ccc(-c3nn(Cc4oc(=O)c5ccccc5c4-c4ccccc4)c4ncnc(N)c34)cc12 [Example 37, 3-((4-Amino-3-(3-methyl-1H-indazol-5-yl)-1H-pyrazolo[3,4-d]pyrimidin-1-yl)methyl)-4-phenyl-1H-isochromen-1-one]
